For assay [1], the system named is Staphylococcus aureus (S. aureus) 11540 strain. The assay is described as follows: Standard microdilution assay, MIC against S. aureus 11540. The format is cell-based. As to conditions: S. aureus 11540 strain, standard microdilution assay, cutoff 16 micrograms/mL, read-out: MIC S. aureus. Here is the method: The in vitro activity of the compounds of the present invention can be determined. Antimicrobial testing is typically performed to determine the minimum inhibitory concentration (MIC). Minimum inhibitory concentrations (MICs) are determined by the microdilution method in a final volume of 100 μl according to protocols outlined by The Clinical and Laboratory Standards Institute (CLSI). Performance standards for reference strains are assessed within the same experimental design to maintain quality control. See, for example, Clinical Laboratory Standards Institute: Methods for dilution antimicrobial susceptibility tests for bacteria that grow aerobically M7-A8. Approved Standard-Eighth Edition. Wayne, Pa.: CLSI; December 2008; and Clinical Laboratory Standards Institute: Performance Standards for Antimicrobial Susceptibility Testing M100-S20; Approved Standard-Twentieth Edition. Wayne, Pa.: CLSI; June 2010.
The compounds of the present invention were tested for antimicrobial activity. The Compounds 1-582 were run against Eschericia coli (E. coli) strain ATCC25922 and Compounds 320-582 were run against Staphylococcus aureus (S. aureus) 11540 strain using a standard microdilution assay to determine minimum inhibitory concentrations (MICs). […] It will be recognized by one skilled in the art that the compounds can be assessed against other bacterial organisms and that the presentation of data for activity against Eschericia coli and Staphylococcus aureus are illustrative and in no way is intended to limit the scope of the present invention. The compounds of the present invention can be assayed against a range of other microorganisms depending upon the performance activity desired to be gathered. Furthermore, the “+” and “−” representation and the selection of a cutoff value of 16 micrograms/mL is also illustrative and in no way is intended to limit the scope of the present invention.
Background: Dilution methods test growth across graded concentrations, often in twofold steps.

Assay [2] deals with Eschericia coli (E. coli) strain ATCC25922. Nature of the assay: Standard microdilution assay, MIC against E. coli ATCC25922. It is filed as cell-based. As to conditions: Escherichia coli; E. coli strain ATCC25922, standard microdilution assay; cutoff 16 micrograms/mL; read-out: MIC E. Coli. The method, boiled down: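 Scoring as + or − used a 16 micrograms/mL cutoff on minimum inhibitory concentrations. These came from CLSI-standard microdilution, quality-controlled with reference strains tested in the same run.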

Some results are limits rather than exact numbers.

Broadly, the MIC is the least concentration at which growth counts as inhibited. With `NCC[C@@H]1CCC[C@@H](c2ccc(-n3cc4cc(-c5cc(CCC[C@@H](N)CO)cc(Cl)c5F)[nH]c4nc3=O)cc2)N1` [Compound 483], the minimal inhibitory concentration (MIC) in assay [1] and in assay [2] was less than 16 µg/mL in each case.
Consider `COC(=O)[C@H](CCNC(=N)N)N[C@@H](C)c1ccc(-n2cc3cc(-c4cc(CCC[C@H](C)N)cc(Cl)c4F)[nH]c3nc2=O)cc1` [Compound 356], for which the MIC in assay [1] and in assay [2] was less than 16 µg/mL in each case.
As to `C[C@H](N)CCCc1cc(Cl)c(F)c(-c2cc3cn(-c4ccc([C@@H]5CCC[C@@H](CNCC6CCOCC6)N5)cc4)c(=O)nc3[nH]2)c1` [Compound 550], the MIC in assay [1] and in assay [2] was greater than 16 µg/mL throughout.
On to `C[C@H](N)CCCc1cc(Cl)c(F)c(-c2cc3cn(-c4ccc([C@@H]5CC(CCNC(=N)N)CN5C(=N)N)cc4)c(=O)nc3[nH]2)c1` (some centres unmarked) [Compound 407], for which the minimum inhibitory concentration (MIC) in assay [1] and in assay [2] was less than 16 µg/mL throughout.
Turning to `C[C@H](N)CCCc1cc(OC(F)(F)F)c(F)c(-c2cc3cn(-c4ccc(CN5CC[C@H](CN6CCOCC6)NC5=N)cc4)c(=O)nc3[nH]2)c1` [Compound 419], the minimal inhibitory concentration (MIC) in assay [1] and in assay [2] was less than 16 µg/mL in each case.
Regarding `COC[C@@H](CCNC(=N)N)NCc1ccc(-n2cc3cc(-c4cc(CCC[C@H](C)N)cc(Cl)c4F)[nH]c3nc2=O)cc1` [Compound 340], the MIC in assay [1] and in assay [2] was less than 16 µg/mL each time.
Turning to `COC(=O)[C@H](CCNC(=N)N)N[C@@H](C)c1ccc(-n2cc3cc(-c4cc(CCC[C@H](C)N)cc(OC(F)(F)F)c4F)[nH]c3nc2=O)cc1` [Compound 362], the minimum inhibitory concentration (MIC) in assay [1] and in assay [2] was less than 16 µg/mL in each case.
On to `C[C@H](N)CCCc1cc(Cl)c(F)c(-c2cc3cn(-c4ccc([C@@H]5CCO[C@@H](CCCNC(=N)N)C5)cc4)c(=O)nc3[nH]2)c1` [Compound 523], for which the MIC in assay [1] and in assay [2] was less than 16 µg/mL in each case.
As to `C[C@H](N)CCCc1cc(Cl)c(F)c(-c2cc3cn(-c4ccc([C@@H]5CCC[C@@H](Cc6cnc(N)s6)N5)cc4)c(=O)nc3[nH]2)c1` [Compound 538], the MIC in assay [1] is less than 16 µg/mL; in assay [2], greater than 16 µg/mL.
Regarding `C[C@H](N)CCCc1cc(Cl)c(F)c(-c2cc3cn(-c4ccc([C@@H]5CCO[C@@H](CCNC(=N)N)C5)cc4)c(=O)nc3[nH]2)c1` [Compound 526], the MIC in assay [1] and in assay [2] was less than 16 µg/mL in each case.
In the case of `C[C@H](N)CCCc1cc(Cl)c(F)c(-c2cc3cn(-c4ccc([C@H](C)NCC[C@@H](CSc5nccs5)NC(=N)N)cc4)c(=O)nc3[nH]2)c1` [Compound 365], the MIC in assay [1] and in assay [2] was less than 16 µg/mL each time.
As for `C[C@H](N)CCCc1cc(Cl)c(F)c(-c2cc3cn(-c4ccc([C@@H]5CCC[C@@H](CNCc6nccn6C)N5)cc4)c(=O)nc3[nH]2)c1` [Compound 551], the MIC in assay [1] and in assay [2] was greater than 16 µg/mL throughout.
Regarding `CN/C(=C/[N+](=O)[O-])NCC[C@@H]1CCC[C@@H](c2ccc(-n3cc4cc(-c5cc(CCC[C@H](C)N)cc(Cl)c5F)[nH]c4nc3=O)cc2)N1` [Compound 517], the MIC in assay [1] and in assay [2] was less than 16 µg/mL throughout.
For the compound `CC1=NCC[C@@H]2CCC[C@@H](c3ccc(-n4cc5cc(-c6cc(CCC[C@H](C)N)cc(Cl)c6F)[nH]c5nc4=O)cc3)N12` [Compound 568], the MIC in assay [1] was less than 16 µg/mL; in assay [2], greater than 16 µg/mL.
Turning to `C[C@H](NCCCNC(=N)N)c1ccc(-n2cc3cc(-c4cc(CCC[C@@H](N)COP(=O)(O)O)cc(Cl)c4F)[nH]c3nc2=O)cc1` [Compound 487], the minimal inhibitory concentration (MIC) in assay [1] and in assay [2] was less than 16 µg/mL each time.
Consider `C[C@H](N)CCCc1cc(Cl)c(F)c(-c2cc3cn(-c4ccc([C@H](C)N[C@@H](CCNC(=N)N)C(N)=O)cc4)c(=O)nc3[nH]2)c1` [Compound 363], for which the MIC in assay [1] and in assay [2] was less than 16 µg/mL in each case.
With `CC#C[C@H](CCNC(=N)N)NCc1ccc(-n2cc3cc(-c4cc(CCC[C@H](C)N)cc(Cl)c4F)[nH]c3nc2=O)cc1` [Compound 506], the MIC in assay [1] and in assay [2] was less than 16 µg/mL throughout.
On to `C[C@H](N)CCCc1cc(OC(F)(F)F)c(F)c(-c2cc3cn(-c4ccc([C@@H]5CCC[C@@H](CCn6ccnn6)N5)cc4)c(=O)nc3[nH]2)c1` [Compound 479], for which the MIC in assay [1] and in assay [2] was greater than 16 µg/mL each time.
Regarding `C[C@H](N)CCCc1cc(Cl)c(F)c(-c2cc3cn(-c4ccc([C@@H]5CCC[C@@H](CCn6cccn6)N5)cc4)c(=O)nc3[nH]2)c1` [Compound 530], the MIC in assay [1] and in assay [2] was greater than 16 µg/mL in each case.
Turning to `N=C(N)NCC[C@@H]1CCC[C@@H](c2ccc(-n3cc4cc(-c5ccc(S(=O)(=O)NC6CCN(C(=N)N)CC6)cc5)[nH]c4nc3=O)cc2)N1` [Compound 494], the MIC in assay [1] and in assay [2] was less than 16 µg/mL each time.
As for `Cc1nnc(NC[C@@H](CCNC(=N)N)NCc2ccc(-n3cc4cc(-c5cc(CCC[C@H](C)N)cc(Cl)c5F)[nH]c4nc3=O)cc2)s1` [Compound 560], the MIC in assay [1] and in assay [2] was less than 16 µg/mL each time.
Regarding `CC[C@H](NCCCNC(=N)N)c1ccc(-n2cc3cc(-c4cc(CCC[C@@H](N)CO)cc(Cl)c4F)[nH]c3nc2=O)cc1` [Compound 432], the MIC in assay [1] and in assay [2] was less than 16 µg/mL in each case.
For `C[C@H](N)CCCc1cc(Cl)c(F)c(-c2cc3cn(-c4ccc([C@H](N)CCCN)cc4)c(=O)nc3[nH]2)c1` [Compound 454], the MIC in assay [1] and in assay [2] was less than 16 µg/mL in each case.
For `C[C@H](N)CCCc1cc(Cl)c(F)c(-c2cc3cn(-c4ccc([C@H](C)N[C@H](CO)CCNC(=N)N)cc4)c(=O)nc3[nH]2)c1` [Compound 367], the MIC in assay [1] and in assay [2] was less than 16 µg/mL each time.
As to `C[C@H](N)CCCc1cc(Cl)c(F)c(-c2cc3cn(-c4ccc(CN[C@@H](CCNC(=N)N)CCc5nccs5)cc4)c(=O)nc3[nH]2)c1` [Compound 519], the minimum inhibitory concentration (MIC) in assay [1] and in assay [2] was less than 16 µg/mL in each case.
As to `C[C@H](N)CCCN1CC[C@@H](c2cc3cn(-c4ccc([C@H](C)NCCCNC(=N)N)cc4)c(=O)nc3[nH]2)C1` [Compound 578], the MIC in assay [1] and in assay [2] was less than 16 µg/mL throughout.
On to `C[C@H](N)CCCc1cc(Cl)c(F)c(-c2cc3cn(-c4ccc(CNC5CC(NC(=N)N)C5)cc4)c(=O)nc3[nH]2)c1` (some centres unmarked) [Compound 563], for which the minimum inhibitory concentration (MIC) in assay [1] and in assay [2] was less than 16 µg/mL each time.
Regarding `C[C@H](N)CCCc1cc(OC(F)(F)F)c(F)c(-c2cc3cn(-c4ccc(C(O)CNC(=N)N)cc4)c(=O)nc3[nH]2)c1` (some centres unmarked) [Compound 472], the MIC in assay [1] and in assay [2] was less than 16 µg/mL each time.
For the compound `C[C@H](N)CCCc1cc(-c2cc3cn(-c4ccc([C@H](CCF)NCCCNC(=N)N)cc4)c(=O)nc3[nH]2)cc(C(F)(F)F)c1` [Compound 73], the MIC in assay [2] is less than 16 µg/mL.
For the compound `C[C@H](N)CCCc1cc(Cl)c(F)c(-c2cc3cn(-c4ccc(CN[C@H](CO)CCNC(=N)N)cc4)c(=O)nc3[nH]2)c1` [Compound 249], the MIC in assay [2] is less than 16 µg/mL.
The same measure, in the same setting: then `N=C(N)NCCCNCc1ccc(-n2cc3cc(-c4cc(C[C@H]5C[C@H](N)CCO5)cc(OC(F)(F)F)c4)[nH]c3nc2=O)cc1` [Compound 37], with less than 16 µg/mL; and `C[C@H](NCCCNC(=N)N)c1ccc(-n2cc3cc(-c4cc(C[C@H]5C[C@H](N)CCO5)cc(OC(F)(F)F)c4)[nH]c3nc2=O)cc1` [Compound 38], with less than 16 µg/mL; and `C=C[C@H](CCN[C@@H](C)c1ccc(-n2cc3cc(-c4cc(CCC[C@H](C)N)cc(OC(F)(F)F)c4F)[nH]c3nc2=O)cc1)NC(=N)N` [Compound 237], with less than 16 µg/mL.
Same read-out and setting: then `C=CCC[C@H](NCCCNC(=N)N)c1ccc(-n2cc3cc(-c4cc(CCC[C@H](C)N)cc(SC(F)(F)F)c4)[nH]c3nc2=O)cc1` [Compound 82], with less than 16 µg/mL; and `C/C=C/C[C@H](CCN[C@@H](C)c1ccc(-n2cc3cc(-c4cc(CCC[C@H](C)N)cc(OC(F)(F)F)c4F)[nH]c3nc2=O)cc1)NC(=N)N` [Compound 292], with less than 16 µg/mL; and `C[C@H](N)CCCc1cc(OC(F)(F)F)c(F)c(-c2cc3cn(-c4ccc([C@H](C)NCC[C@H](CCCO)NC(=N)N)cc4)c(=O)nc3[nH]2)c1` [Compound 276], with less than 16 µg/mL.
Take `C[C@H](N)CCCc1cc(SC(F)(F)F)cc(-c2cc3cn(-c4ccc([C@@H](NCCCNC(=N)N)c5cccnc5)cc4)c(=O)nc3[nH]2)c1` [Compound 66]: in assay [2], the MIC is less than 16 µg/mL.
For the compound `C[C@H](N)CCCc1cc(SC(F)(F)F)cc(-c2cc3cn(-c4ccc(CNCc5nn[nH]n5)cc4)c(=O)nc3[nH]2)c1` [Compound 163], the minimum inhibitory concentration (MIC) in assay [2] is greater than 16 µg/mL.
For `C[C@H](N)CCCc1cc(Cl)c(F)c(-c2cc3cn(-c4ccc([C@H](C)N[C@H](CCO)CCNC(=N)N)cc4)c(=O)nc3[nH]2)c1` [Compound 291], the MIC in assay [2] was less than 16 µg/mL.
Turning to `C[C@H](NCCCNC(=N)N)c1ccc(-n2cc3cc(-c4cc([C@H](O)CC[C@@H](C)N)cc(C(F)(F)F)c4)[nH]c3nc2=O)cc1` [Compound 20], the MIC in assay [2] was less than 16 µg/mL.

For the origin of these results see patent publication US10815238B2, “Antimicrobial compounds and methods of making and using the same” (BIOVERSYS AG, priority 2013, dated 2020).
